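Protocol summary: plate cells (96-well), add compound at 5 concentrations, incubate 48 h, interpolate endpoints linearly. The concentration for 50% growth inhibition is given as GI50. At the TGI there is no net growth.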
How the values were obtained:
Assay in all cases: growth of human tumour cells (NCI), 48 h
786-0 renal = test system: 786-0 renal
A498 renal = test system: A498 renal
A549 NSCLC = test system: A549 NSCLC
ACHN renal = test system: ACHN renal
BT-549 breast = test system: BT-549 breast
CAKI-1 renal = test system: CAKI-1 renal
CCRF-CEM leukemia = test system: CCRF-CEM leukemia
COLO 205 colon = test system: COLO 205 colon
DU-145 prostate = test system: DU-145 prostate
EKVX NSCLC = test system: EKVX NSCLC
HCC-2998 colon = test system: HCC-2998 colon
HCT-116 colon = test system: HCT-116 colon
HCT-15 colon = test system: HCT-15 colon
HL-60(TB) leukemia = test system: HL-60(TB) leukemia
HOP-62 NSCLC = test system: HOP-62 NSCLC
HS 578T breast = test system: HS 578T breast
HT29 colon = test system: HT29 colon
IGROV1 ovarian = test system: IGROV1 ovarian
K-562 leukemia = test system: K-562 leukemia
KM12 colon = test system: KM12 colon
LOX IMVI melanoma = test system: LOX IMVI melanoma
M14 melanoma = test system: M14 melanoma
MALME-3M melanoma = test system: MALME-3M melanoma
MCF7 breast = test system: MCF7 breast
MDA-MB-231 breast = test system: MDA-MB-231 breast
MDA-MB-435 = test system: MDA-MB-435
MDA-MB-468 breast = test system: MDA-MB-468 breast
MOLT-4 leukemia = test system: MOLT-4 leukemia
NCI-H226 lung = test system: NCI-H226 lung
NCI-H23 lung = test system: NCI-H23 lung
NCI-H460 lung = test system: NCI-H460 lung
NCI-H522 lung = test system: NCI-H522 lung
NCI/ADR-RES ovarian = test system: NCI/ADR-RES ovarian
OVCAR-3 ovarian = test system: OVCAR-3 ovarian
OVCAR-4 ovarian = test system: OVCAR-4 ovarian
OVCAR-5 ovarian = test system: OVCAR-5 ovarian
OVCAR-8 ovarian = test system: OVCAR-8 ovarian
PC-3 prostate = test system: PC-3 prostate
RPMI-8226 leukemia = test system: RPMI-8226 leukemia
RXF 393 renal = test system: RXF 393 renal
SF-268 CNS = test system: SF-268 CNS
SF-295 CNS = test system: SF-295 CNS
SF-539 CNS = test system: SF-539 CNS
SK-MEL-2 melanoma = test system: SK-MEL-2 melanoma
SK-MEL-28 melanoma = test system: SK-MEL-28 melanoma
SK-MEL-5 melanoma = test system: SK-MEL-5 melanoma
SK-OV-3 ovarian = test system: SK-OV-3 ovarian
SN12C renal = test system: SN12C renal
SNB-19 CNS = test system: SNB-19 CNS
SR leukemia = test system: SR leukemia
SW-620 colon = test system: SW-620 colon
T-47D breast = test system: T-47D breast
TK-10 renal = test system: TK-10 renal
U251 CNS = test system: U251 CNS
UACC-257 melanoma = test system: UACC-257 melanoma
UACC-62 melanoma = test system: UACC-62 melanoma
UO-31 renal = test system: UO-31 renal

With `CN1CCN(c2ccc(C(=O)/C=C/c3ccc(Br)cc3)cc2)CC1` the GI50 (786-0 renal) was 29.5 µM, the TGI (786-0 renal) was over 100 µM and the GI50 (A498 renal) was over 100 µM. For the same compound, the TGI (A498 renal) was over 100 µM, the GI50 (A549 NSCLC) was 28.1 µM and the TGI (A549 NSCLC) was over 100 µM. For the same compound, the GI50 (ACHN renal) was 54.9 µM, the TGI (ACHN renal) was over 100 µM and the GI50 (BT-549 breast) was 12 µM. The TGI (BT-549 breast) was 46.7 µM, the GI50 (CAKI-1 renal) was 32.2 µM and the TGI (CAKI-1 renal) was over 100 µM. For the same compound, the GI50 (CCRF-CEM leukemia) was 40.9 µM, the TGI (CCRF-CEM leukemia) was 95.5 µM and the GI50 (COLO 205 colon) was 50.1 µM. The TGI (COLO 205 colon) was over 100 µM, the GI50 (DU-145 prostate) was 86.6 µM and the TGI (DU-145 prostate) was over 100 µM. For the same compound, the GI50 (EKVX NSCLC) was over 100 µM, the TGI (EKVX NSCLC) was over 100 µM and the GI50 (HCC-2998 colon) was 15.2 µM. It also gave a TGI (HCC-2998 colon) of 50.4 µM, a GI50 (HCT-116 colon) of 3.54 µM and a TGI (HCT-116 colon) of 18.5 µM. The GI50 (HCT-15 colon) was 5.64 µM, the TGI (HCT-15 colon) was over 100 µM and the GI50 (HL-60(TB) leukemia) was 10.7 µM. It also gave a TGI (HL-60(TB) leukemia) of 33.6 µM, a GI50 (HOP-62 NSCLC) of over 100 µM and a TGI (HOP-62 NSCLC) of over 100 µM. It also gave a GI50 (HS 578T breast) of over 100 µM, a TGI (HS 578T breast) of over 100 µM and a GI50 (HT29 colon) of 15.8 µM. For the same compound, the TGI (HT29 colon) was over 100 µM, the GI50 (IGROV1 ovarian) was 34.5 µM and the TGI (IGROV1 ovarian) was over 100 µM. The GI50 (K-562 leukemia) was 6.96 µM, the TGI (K-562 leukemia) was 78.5 µM and the GI50 (KM12 colon) was 16.6 µM. The TGI (KM12 colon) was over 100 µM, the GI50 (LOX IMVI melanoma) was 13.7 µM and the TGI (LOX IMVI melanoma) was 50.6 µM. For the same compound, the GI50 (M14 melanoma) was 36.6 µM, the TGI (M14 melanoma) was over 100 µM and the GI50 (MALME-3M melanoma) was over 100 µM. The TGI (MALME-3M melanoma) was over 100 µM, the GI50 (MCF7 breast) was 5.67 µM and the TGI (MCF7 breast) was over 100 µM. It also gave a GI50 (MDA-MB-231 breast) of over 100 µM, a TGI (MDA-MB-231 breast) of over 100 µM and a GI50 (MDA-MB-435) of 22.4 µM. It also gave a TGI (MDA-MB-435) of 98 µM, a GI50 (MDA-MB-468 breast) of 7.85 µM and a TGI (MDA-MB-468 breast) of 41 µM. The GI50 (MOLT-4 leukemia) was 31.3 µM, the TGI (MOLT-4 leukemia) was over 100 µM and the GI50 (NCI-H226 lung) was 45.5 µM. For the same compound, the TGI (NCI-H226 lung) was over 100 µM, the GI50 (NCI-H23 lung) was over 100 µM and the TGI (NCI-H23 lung) was over 100 µM. It also gave a GI50 (NCI-H460 lung) of over 100 µM, a TGI (NCI-H460 lung) of over 100 µM and a GI50 (NCI-H522 lung) of over 100 µM. For the same compound, the TGI (NCI-H522 lung) was over 100 µM, the GI50 (NCI/ADR-RES ovarian) was 76 µM and the TGI (NCI/ADR-RES ovarian) was over 100 µM. The GI50 (OVCAR-3 ovarian) was 24.4 µM, the TGI (OVCAR-3 ovarian) was 96 µM and the GI50 (OVCAR-4 ovarian) was 70.8 µM. The TGI (OVCAR-4 ovarian) was over 100 µM, the GI50 (OVCAR-5 ovarian) was 51.9 µM and the TGI (OVCAR-5 ovarian) was over 100 µM. It also gave a GI50 (OVCAR-8 ovarian) of 54.9 µM, a TGI (OVCAR-8 ovarian) of over 100 µM and a GI50 (PC-3 prostate) of 28.2 µM. It also gave a TGI (PC-3 prostate) of over 100 µM, a GI50 (RPMI-8226 leukemia) of 5.38 µM and a TGI (RPMI-8226 leukemia) of 32.2 µM. The GI50 (RXF 393 renal) was 17.2 µM, the TGI (RXF 393 renal) was over 100 µM and the GI50 (SF-268 CNS) was over 100 µM. The TGI (SF-268 CNS) was over 100 µM, the GI50 (SF-295 CNS) was 41.3 µM and the TGI (SF-295 CNS) was over 100 µM. It also gave a GI50 (SF-539 CNS) of 24.4 µM, a TGI (SF-539 CNS) of over 100 µM and a GI50 (SK-MEL-2 melanoma) of over 100 µM. It also gave a TGI (SK-MEL-2 melanoma) of over 100 µM, a GI50 (SK-MEL-28 melanoma) of 76.2 µM and a TGI (SK-MEL-28 melanoma) of over 100 µM. For the same compound, the GI50 (SK-MEL-5 melanoma) was 22.5 µM, the TGI (SK-MEL-5 melanoma) was over 100 µM and the GI50 (SK-OV-3 ovarian) was 53.9 µM. The TGI (SK-OV-3 ovarian) was over 100 µM, the GI50 (SN12C renal) was 22.7 µM and the TGI (SN12C renal) was over 100 µM. The GI50 (SNB-19 CNS) was over 100 µM, the TGI (SNB-19 CNS) was over 100 µM and the GI50 (SR leukemia) was 8.37 µM. The TGI (SR leukemia) was 48.7 µM, the GI50 (SW-620 colon) was 23.2 µM and the TGI (SW-620 colon) was over 100 µM. For the same compound, the GI50 (T-47D breast) was 28.7 µM, the TGI (T-47D breast) was over 100 µM and the GI50 (TK-10 renal) was over 100 µM. The TGI (TK-10 renal) was over 100 µM, the GI50 (U251 CNS) was 20.8 µM and the TGI (U251 CNS) was over 100 µM. For the same compound, the GI50 (UACC-257 melanoma) was over 100 µM, the TGI (UACC-257 melanoma) was over 100 µM and the GI50 (UACC-62 melanoma) was 17.1 µM. For the same compound, the TGI (UACC-62 melanoma) was 38.2 µM, the GI50 (UO-31 renal) was 16.9 µM and the TGI (UO-31 renal) was over 100 µM.
`CCCCCc1c(C)[nH]c(/C=C2\N=C(c3ccc[nH]3)C=C2Oc2ccc(Cl)cc2)c1C` gave a GI50 (MDA-MB-468 breast) of 0.0243 µM and a TGI (MDA-MB-468 breast) of 2.18 µM.
Compound `COc1ccc(/C=C2\CCCC3=C2NC(C)=NC3c2ccc(OC)c(OC)c2)cc1OC` (centres undefined) has a GI50 (MDA-MB-468 breast) of 1.29 µM and a TGI (MDA-MB-468 breast) of 8.18 µM.
For `COc1cc(/C=C(/c2ccccc2)[N+](=O)[O-])c(OC)c2c1OCO2`, the GI50 (MDA-MB-468 breast) was 1.33 µM and the TGI (MDA-MB-468 breast) was 2.73 µM.
For `CC(C)OC(=O)c1ccc2[nH]c(O)c(C(=Nc3ccc(N(C)C(=O)CN4CCN(C)CC4)cc3)c3ccccc3)c2c1`, the GI50 (MDA-MB-468 breast) was 0.964 µM and the TGI (MDA-MB-468 breast) was 2.46 µM.
`COC1CCN(Cc2ccc3c(NNC(=O)c4cnccn4)nc4cc(F)ccc4n23)C1` (centres undefined) showed a GI50 (MDA-MB-468 breast) of 0.916 µM and a TGI (MDA-MB-468 breast) of 4.27 µM.
Work on `CCCCC[C@H]1C/C=C2/C(=O)C(Cl)=C[C@@H]2C/C=C\CCCC(=O)O[C@@H](CCCCC)C/C=C2/C(=O)C(Cl)=C[C@@H]2C/C=C\CCCC(=O)O1` yielded a GI50 (MDA-MB-468 breast) of 0.366 µM and a TGI (MDA-MB-468 breast) of 0.862 µM.
Work on `Fc1ccc(Nc2nc(NCCNc3ccnc4cc(Cl)ccc34)nc(N3CCOCC3)n2)cc1` yielded a GI50 (MDA-MB-468 breast) of 1.96 µM and a TGI (MDA-MB-468 breast) of 4.83 µM.
Compound `O=C(/C=C/c1ccccc1Cl)Nc1ncc(Cc2cc(Cl)ccc2Cl)s1` has a GI50 (MDA-MB-468 breast) of 0.934 µM and a TGI (MDA-MB-468 breast) of 11.1 µM.
For `CS(=O)(=O)Nc1cc(-c2ccc3ncnc(Nc4ccc5c(cnn5Cc5ccc(F)cc5)c4)c3c2)cnc1Cl`, the GI50 (MDA-MB-468 breast) was 0.281 µM and the TGI (MDA-MB-468 breast) was 1.52 µM.
`CC1=CC(=O)C(C(C)=Nc2ccccc2Cl)C(=O)O1` (centres undefined) gave a GI50 (MDA-MB-468 breast) of over 100 µM and a TGI (MDA-MB-468 breast) of over 100 µM.
